Reference: patent publication US4980287A, “4H-3,1-benzoxazin-4-one compounds and pharmaceutical compositions thereof for the inhibition of serine proteases” (Teijin Limited, priority 1987, dated 1990)

Tests used:
[1] = target: T1, bovine pancreas α-chymotrypsin (Bos taurus, UniProt P00766); assay: α-chymotrypsin-inhibitory activity (hydrolysis of succinyl-Ala-Ala-Pro-Phe-p-nitroanilide); type: biochemical; conditions: for IC50 / Selectivity: Table 10; for IC50: procedure of Example 19 (B); for Selectivity: ratio of IC50 for bovine α-chymotrypsin to IC50 for human purulent sputum elastase
T1 construct: bovine pancreas α-chymotrypsin; purchased Sigma Co; host or cells: bovine pancreas
Experimental: An in vitro test similar to that mentioned above can be applied to chymotrypsin.
As a chymotrypsin, α-chymotrypsin of bovine pancreas, which is readily available commercially, is used. […] The extent of the hydrolysis of AAPFpNA is measured in the absence of a compound to be tested or in the presence of the compound in various concentrations thereof, and thus a concentration (IC50) of the compound necessary to inhibit 50% of the enzyme reaction can be determined.
(§1) Inhibitory activities of 7-(N-carbobenzoxy-L-phenylalanyl)amino-2-isopropylamino-5-methyl-4H-3,1- benzoxazin-4-one for human purulent sputum elastase, for α-chymotrypsin, for cathepsin G, for trypsin, for thrombin and for plasmin were determined by the following methods and the results are shown in Table 9.
The same procedures as those described in the above item (A) for the human purulent sputum elastase were carried out, with the following exception.
The enzyme-testing tuffer solution contained 2×10^-8 M bovine pancreas α-chymotrypsin (available from Sigma Co.). The synthetic substrate was succinyl-L-alanyl-L-alanyl-L-prolyl-L-henylalanyl-p-nitroanilide (available from Bachem Co.).
An IC50 for the α-chymotrypsin was determined in the same manner as mentioned above. (C) Determination of human cathepsin G-inhibitory activity
(§2) In each of Examples 20 to 37 and Comparative Examples 1 to 4, the same experimental procedures as those described in Example 19, items (A) and (B) were used for determination of enzyme inhibitory activity, except that the compound indicated in Table 10 was tested as an inhibitory compound.
In Table 10, the item "Selectivity" refers to a ratio of an IC50 value for bovine α-chymotrypsin to an IC50 value for human purulent sputum elastase. The larger the value of the ratio, the higher the selectivity of the inhibitory activity for elastase.

[2] = target: T2, human purulent sputum elastase (Homo sapiens, UniProt P08246); assay: Human purulent sputum elastase-inhibitory activity (hydrolysis of methoxysuccinyl-peptidyl-p-nitroanilide, absorbance at 410 nm); type: biochemical; conditions: for IC50: Table 10, procedure of Example 19 (A)
T2 construct: purchased Elastin Products Co; host or cells: human purulent sputum
T2 sequence (P08246 30-247 limits assumed): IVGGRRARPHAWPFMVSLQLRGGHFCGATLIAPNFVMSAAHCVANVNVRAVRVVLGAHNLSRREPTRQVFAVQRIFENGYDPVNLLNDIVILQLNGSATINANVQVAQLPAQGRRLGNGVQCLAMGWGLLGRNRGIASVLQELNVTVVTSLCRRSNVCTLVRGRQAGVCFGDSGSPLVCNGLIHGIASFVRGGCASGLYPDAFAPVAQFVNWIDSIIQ
Excerpt: Human purulent sputum elastase is believed to be the same enzyme as human leukocyte elastase, as described by Tomashi et al. (J. BIOL. CHEM., vol. 252, pages 1917 to 1924 (1977)), and can be easily obtained commercially.
The extent of the hydrolysis of AAPVpNA by human purulent sputum elastase can be easily determined by measuring the amount of p-nitroaniline released from AAPVpNA, by a spectrophotometer. Then, by comparing the extent of hydrolysis of AAPVpNA by the human purulent sputum elastase in the absence of a compound to be tested with that in the presence of the compound to be tested in various concentrations, a concentration (IC50) of the compound to be tested necessary to inhibit 50% of the elastase reaction can be determined.
as §1
The testing buffer (pH7.5) consisted of 0.1M N-2-hyiroxyethylpiperazine-N'-2-ethanesulfonic acid, 1M sodium chloride and 0.1% w/v polyethylene glycol 6000.
Human purulent sputum elastase was obtained from Elastin Products Co., and adjusted to 1.5×10^-8 M in the testing buffer.
Methoxysuccinyl-[…]-p-nitroanilide was obtained from Bachem Co., and made to 10 mM in dimethyl sulfoxide.
Procedure To 2.4ml of testing buffer in a cell set at 37° in a spectrophotometer (Hitachi U-3200) with a temperature controlled cell holder were added 25 μl of substrate solution and 25 μl of acetonitrile with or without inhibitory compounds, and the resultant mixture was stirred. Reactions were initiated by addition of 50 μl of the enzyme solution and hydrolysis of the substrate was monitored by measuring a change of light absorbance at 410 nm. The concentration (IC50) at which 50% of the activity of human purulent sputum elastase was inhibited was determined for each inhibitory compound from a steady state velocity of the substrate hydrolysis.
as §2

human plasmin = target: T3, human plasmin (Homo sapiens, UniProt P00747); assay: Plasmin-inhibitory activity; type: biochemical; conditions: Table 9
T3 construct: human plasmin; purchased Daiichi Kagaku Yakuhin K.K
Experimental: as §1
The same procedures as those described in item (A) were carried out except that the enzyme testing buffer solution contained 0.6 CasU/ml human plasmin (available from Daiichi Kagaku Yakuhin K.K.) and the substrate consisted of D-valyl-L-leucyl-L-lysyl-p-nitro-anilide (available from Daiichi Kagaku Yakuhin K.K.).
An IC50 for the human plasmin was determined in the same manner as mentioned above.

human thrombin = target: T4, human thrombin (Homo sapiens, UniProt P00734); assay: Thrombin-inhibitory activity; type: biochemical; conditions: Table 9
T4 construct: human thrombin; purchased Daiichi Kagaku Yakuhin K.K
Experimental: as §1
The same procedures as those described in item (A) were carried out except that the enzyme-testing buffer solution contained 0.04 μkat/ml human thrombin (available from Daiichi Kagaku Yakuhin K.K.) and the substrate consisted of D-phenylalanyl-pipecolyl-arginyl-p-nitroanilide (available from Daiichi Kagaku Yakuhin K.K.).
An IC for the human thrombin was determined in the same manner as mentioned above.

[3] = Stability in human serum (37° C., HPLC peak area); type: in vitro ADME
Experimental: A solution of […] of 7-(N-carbobenzoxy-L-phenylalanyl)amino-2-isopropylamino-5-methyl-4H-3,1-benzoxazin-4-one in 50 μl acetonitrile was mixed with 0.45 ml of human serum, and the resultant mixture was allowed to stand at a temperature of 37° C. The mixture was subjected to treatment with a Sep-pac C18 cartridge (trademark, made by Waters Cc.) for removal of protein, and a portion of the resultant acetonitrile-eluted fraction was subjected to a high speed liquid chromatographic analysis.

[4] = ratio of IC50 for the protease to IC50 for human purulent sputum elastase
[5] = Table 9, ratio of IC50 for the protease to IC50 for human purulent sputum elastase

T3 sequence (P00747 581-810 limits assumed): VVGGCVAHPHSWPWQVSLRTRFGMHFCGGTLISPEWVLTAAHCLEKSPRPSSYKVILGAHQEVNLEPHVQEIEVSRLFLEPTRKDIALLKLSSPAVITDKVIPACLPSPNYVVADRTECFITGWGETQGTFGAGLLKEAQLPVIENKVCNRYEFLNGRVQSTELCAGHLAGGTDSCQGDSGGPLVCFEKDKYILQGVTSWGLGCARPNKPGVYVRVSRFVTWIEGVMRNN
T3 sequence (P00747 97-580 partner limits assumed): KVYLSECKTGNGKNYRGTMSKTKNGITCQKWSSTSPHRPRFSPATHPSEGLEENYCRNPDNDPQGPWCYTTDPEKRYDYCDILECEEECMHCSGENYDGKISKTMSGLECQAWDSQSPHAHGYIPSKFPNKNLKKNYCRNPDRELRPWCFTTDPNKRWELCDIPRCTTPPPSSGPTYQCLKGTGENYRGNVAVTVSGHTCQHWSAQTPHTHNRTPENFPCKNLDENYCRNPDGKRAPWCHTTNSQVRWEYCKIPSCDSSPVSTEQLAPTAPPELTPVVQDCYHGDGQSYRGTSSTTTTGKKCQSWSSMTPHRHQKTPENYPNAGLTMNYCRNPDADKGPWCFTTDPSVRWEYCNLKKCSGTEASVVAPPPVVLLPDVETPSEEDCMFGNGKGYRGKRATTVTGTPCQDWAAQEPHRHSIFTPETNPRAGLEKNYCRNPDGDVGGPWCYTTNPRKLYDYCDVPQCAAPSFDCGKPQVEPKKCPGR

Row | Compound | IC50 [1] [µM] | Selectivity [1] | IC50 [2] [µM] | further results
1 | O=C(Nc1ccc2c(=O)oc(C(F)(F)F)nc2c1)[C@@H]1CCCN1C(=O)OCc1ccccc1 [Example 20, 7-(N-carbobenzoxy-L-prolyl)amino-2-trifluoromethyl-4H-3,1-benzoxazin-4-one] | 17 | 7.7 | 2.2 | –
2 | CC(C)Oc1nc2cc(NC(=O)[C@@H]3CCCN3C(=O)OCc3ccccc3)ccc2c(=O)o1 [Example 21, 7-(N-carbobenzoxy-L-prolyl)amino-2-isopropoxy-4H-3,1-benzoxazin-4-one] | 0.17 | 3.9 | 0.044 | –
3 | CC(C)Oc1nc2cc(NC(=O)[C@H](C)NC(=O)OCc3ccccc3)ccc2c(=O)o1 [Example 22] | 0.37 | 4.8 | 0.077 | –
4 | CC(C)Oc1nc2cc(NC(=O)[C@@H](NC(=O)OCc3ccccc3)C(C)C)ccc2c(=O)o1 [Example 23] | 0.16 | 6.6 | 0.024 | –
5 | CC(C)Oc1nc2cc(NC(=O)[C@H](Cc3ccccc3)NC(=O)OCc3ccccc3)ccc2c(=O)o1 [Example 24] | 0.34 | 31 | 0.011 | –
6 | CC(C)Oc1nc2cc(NC(=O)[C@H](CCCCNC(=O)OCc3ccccc3)NC(=O)OCc3ccccc3)ccc2c(=O)o1 [Example 25] | 0.58 | 41 | 0.014 | –
7 | CC(C)Oc1nc2cc(NC(=O)[C@H](CCC(=O)OCc3ccccc3)NC(=O)OCc3ccccc3)ccc2c(=O)o1 [Example 26] | > 0.5 | > 20 | 0.026 | –
8 | CC(C)Oc1nc2cc(NC(=O)[C@@H](Cc3ccccc3)NC(=O)OCc3ccccc3)ccc2c(=O)o1 [Example 27] | 0.49 | 12 | 0.041 | –
9 | CC(C)Oc1nc2cc(NC(=O)[C@@H]3CCCN3C(=O)OC(C)(C)C)ccc2c(=O)o1 [Example 28] | 0.13 | 3.7 | 0.035 | –
10 | CC(C)Oc1nc2cc(NC(=O)[C@H](Cc3ccccc3)NC(=O)OC(C)(C)C)ccc2c(=O)o1 [Example 29] | 0.094 | 2.0 | 0.046 | –
11 | CC(=O)N1CCC[C@H]1C(=O)Nc1ccc2c(=O)oc(OC(C)C)nc2c1 [Example 30] | 0.49 | 3.8 | 0.13 | –
12 | CC(C)Oc1nc2cc(NC(=O)[C@@H]3CCCN3C(=O)[C@H](C)NC(=O)OCc3ccccc3)ccc2c(=O)o1 [Example 31] | 0.18 | 5.6 | 0.032 | –
13 | CC(C)Oc1nc2cc(NC(=O)[C@@H](NC(=O)[C@@H]3CCCN3C(=O)OCc3ccccc3)C(C)C)ccc2c(=O)o1 [Example 32] | 0.12 | 5.8 | 0.02 | –
14 | CC(C)Oc1nc2cc(NC(=O)[C@@H](NC(=O)[C@H](Cc3ccccc3)NC(=O)OCc3ccccc3)C(C)C)ccc2c(=O)o1 [Example 33] | 0.18 | 5.6 | 0.021 | –
15 | Cc1cc(NC(=O)[C@H](Cc2ccccc2)NC(=O)OCc2ccccc2)cc2nc(OC(C)C)oc(=O)c12 [Example 34, 7-(N-carbobenzoxy-L-phenylalanyl)amino-2-isopropoxy-5-methyl-4H-3,1-benzoxazin-4-one] | 0.01 | 18 | 0.00055 | –
16 | Cc1cc(NC(=O)[C@H](Cc2ccccc2)NC(=O)OCc2ccccc2)cc2nc(NC(C)C)oc(=O)c12 [Example 36, 7-(N-carbobenzoxy-L-phenylalanyl)amino-5-methyl-2-isopropylamino-4H-3,1-benzoxazin-4-one] | 0.025 | 19 | 0.0013 | IC50 (human plasmin; 0.6 CasU/ml enzyme): 75 µM; Selectivity, human plasmin (human plasmin; [4]): 58,000; IC50 (human thrombin; 0.04 μkat/ml enzyme): > 100 µM; Selectivity, human thrombin (human thrombin; [4]): > 100,000; half-life [3]: 2.5 h; Selectivity, bovine pancreas α-chymotrypsin [1, 5]: 19; Selectivity, human purulent sputum elastase [2, 5]: 1
17 | Cc1nc2cc(NC(=O)[C@H](Cc3ccccc3)NC(=O)OCc3ccccc3)ccc2c(=O)o1 [Example 37, 7-(N-carbobenzoxy-L-phenylalanyl)amino-2-methyl-4H-3,1-benzoxazin4-one] | 160 | 31 | 5.1 | –
18 | O=c1oc(C(F)(F)F)nc2ccccc12 [compound 1, reference compound] | 0.68 | 0.10 | 6.2 | –
19 | CC(C)Oc1nc2ccccc2c(=O)o1 [compound 2, reference compound] | 0.022 | 0.44 | 0.049 | –
20 | CC(=O)Nc1ccc2c(=O)oc(OC(C)C)nc2c1 [compound 3, reference compound] | 0.032 | 0.55 | 0.058 | –
21 | Cc1cccc2nc(OC(C)C)oc(=O)c12 [compound 4, reference compound] | 0.12 | 2.9 | 0.041 | –
